For orientation: MIC means the lowest concentration that inhibits growth of the organism. A higher MIC goes with a less susceptible organism.

Like-named read-outs stand apart in the source and are kept apart here. Square brackets hold non-standard residues; d marks the D form. Ends that are not written are not given here. Peptide text beside a SMILES is read from it. Nspe(4-Br) = C[C@H](NCC(=O)O)c1ccc(Br)cc1; Nspe = C[C@H](NCC(=O)O)c1ccccc1; Nlys = NCCCCNCC(=O)O

The subject of one test is C. auris strains. The following applies: two C. auris strains. Here is the method:
Briefly, bacteria were suspended in cation-adjusted Mueller–Hinton broth (CAMHB; Oxoid, UK) for antibiotics, or MHB (Oxoid, UK) for peptidomimetics to obtain 5 × 10^5 colony forming unit (CFU) ml^−1. […] Positive controls contained only microbes, and blanks contained only media. Microbial suspensions (100 µl) were added to wells, plates wrapped, and incubated at 37°C, 120 rpm for 16–20 h. After incubation, suspensions were removed, log10 diluted, and plated on Trypticase Soya Agar with phosphatidylcholine and Tween 80 to determine minimum bactericidal or fungicidal concentration (MBC or MFC). […] Geometric mean MIC of the peptoids were calculated to evaluate the broad overview of antimicrobial activity across the pathogens.
The therapeutic indices (TIs) of the compounds were calculated with the use of following formula: […]

Test [1] concerns MBL phenotypes of A. baumannii. To be noted: MBL phenotypes of A. baumannii.
Protocol: Briefly, bacteria were suspended in cation-adjusted Mueller–Hinton broth (CAMHB; Oxoid, UK) for antibiotics, or MHB (Oxoid, UK) for peptidomimetics to obtain 5 × 10^5 colony forming unit (CFU) ml^−1. […] Positive controls contained only microbes, and blanks contained only media. Microbial suspensions (100 µl) were added to wells, plates wrapped, and incubated at 37°C, 120 rpm for 16–20 h. […] Geometric mean MIC of the peptoids were calculated to evaluate the broad overview of antimicrobial activity across the pathogens.
For the next test, the system named is E. coli 005. Put shortly:
(§1)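 Broth microdilution; inoculum 5 × 10^5 CFU ml^−1; CAMHB (antibiotics) or MHB (peptidomimetics); 37°C, 120 rpm, 16–20 h. MBC by plating log10 dilutions on TSA + phosphatidylcholine/Tween 80.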

The next test has as its system E. coli 0010. In outline: as §1
In the next test the test system is En. cloacae 003. Put shortly:
as §1

The next test concerns E. coli 0015. Put shortly:
as §1

A further test has as its system K. pneumoniae JIE2709. Put shortly:
as §1

For the next test, the system named is S. aureus 04. Put shortly: as §1
A further test has as its system A. baumannii 008. Put shortly:
as §1

A further test relates to P. aeruginosa 216. Put shortly: as §1
In the next test the test system is A. baumannii 007. Put shortly:
as §1

The next test deals with P. aeruginosa 33. In outline:
as §1

[2] abbreviates: E. coli 005, MHB (melimine/Mel4 with 0.2% BSA, 0.01% acetic acid), mean MIC.
Where [3] appears, read: E. coli 0010, MHB (melimine/Mel4 with 0.2% BSA, 0.01% acetic acid), mean MIC.
The mark [4] stands for this setting: En. cloacae 003, MHB (melimine/Mel4 with 0.2% BSA, 0.01% acetic acid), mean MIC.
Setting [5] is: E. coli 0015, MHB (melimine/Mel4 with 0.2% BSA, 0.01% acetic acid), mean MIC.
Setting [6] is: K. pneumoniae JIE2709, MHB (melimine/Mel4 with 0.2% BSA, 0.01% acetic acid), mean MIC.
Where [7] appears, read: P. aeruginosa 216, MHB (melimine/Mel4 with 0.2% BSA, 0.01% acetic acid), mean MIC.
The mark [8] stands for this setting: A. baumannii 007, MHB (melimine/Mel4 with 0.2% BSA, 0.01% acetic acid), mean MIC.
Setting [9] is: S. aureus 004, MHB (melimine/Mel4 with 0.2% BSA, 0.01% acetic acid), mean MIC.
The mark [10] stands for this setting: A. baumannii 008, MHB (melimine/Mel4 with 0.2% BSA, 0.01% acetic acid), mean MIC.
The mark [11] stands for this setting: P. aeruginosa 33, MHB (melimine/Mel4 with 0.2% BSA, 0.01% acetic acid), mean MIC.

With `C[C@@H](c1ccccc1)N(CC(N)=O)C(=O)CN(C(=O)CN(CCCCN)C(=O)CN(C(=O)CN(C(=O)CN(CCCCN)C(=O)CN(C(=O)CN(C(=O)CN(CCCCN)C(=O)CN(C(=O)CN(C(=O)CNCCCCN)[C@@H](C)c1ccccc1)[C@@H](C)c1ccccc1)[C@@H](C)c1ccccc1)[C@@H](C)c1ccccc1)[C@@H](C)c1ccccc1)[C@@H](C)c1ccccc1)[C@@H](C)c1ccccc1` [TM1] (H-[Nlys][Nspe][Nspe][Nlys][Nspe][Nspe][Nlys][Nspe][Nspe][Nlys][Nspe][Nspe]-NH2), in the test with C. auris strains, the “Geometric mean MICCA” value worked out at 7.8 µg/mL. In addition, in [1], the MIC was at most 7.8 µg/mL. The MIC of peptidomimetics in the test with E. coli 005 (005) is 8.6 µM; in the test on E. coli 005 (setting [2]) it was 15.6 µg/mL; in the test with E. coli 0010 (0010), 8.6 µM; with E. coli 0010 (setting [3]) it was 15.6 µg/mL; in the test with En. cloacae 003, 34.4 µM; in the test with En. cloacae 003 (setting [4]), 62.5 µg/mL. Also, the MIC of peptidomimetics came to 17.2 µM in the test on E. coli 0015 (0015); 31.3 µg/mL with E. coli 0015 (setting [5]); 15.6 µg/mL in the test with K. pneumoniae JIE2709 (setting [6]); 8.6 µM with K. pneumoniae JIE2709 (K. pneumoniae JIE2709, value in brackets); 7.8 µg/mL with S. aureus 04 (04); 7.8 µg/mL in the test with A. baumannii 008 (008). Moreover, the MIC of peptidomimetics in the test with P. aeruginosa 216 (216) was 8.6 µM; with P. aeruginosa 216 (setting [7]) it was 15.6 µg/mL; with A. baumannii 007 (007), 2.1 µM; with A. baumannii 007 (setting [8]), 3.9 µg/mL; with P. aeruginosa 33, 15.6 (8.6) µg ml^−1; with P. aeruginosa 33 (33) it was 8.6 µmol/L.
As to `C[C@@H](c1ccc(Br)cc1)N(CC(=O)N(CCCCN)CC(=O)N(CC(=O)N(CC(=O)N(CCCCN)CC(N)=O)[C@@H](C)c1ccc(Br)cc1)[C@@H](C)c1ccc(Br)cc1)C(=O)CN(C(=O)CNCCCCN)[C@@H](C)c1ccc(Br)cc1` [TM14] (H-[Nlys][Nspe(4-Br)][Nspe(4-Br)][Nlys][Nspe(4-Br)][Nspe(4-Br)][Nlys]-NH2), in the test with C. auris strains, the “Geometric mean MICCA” value came to 7.8 µg/mL. For the same compound, the MIC of peptidomimetics is 23.0 µM in the test on E. coli 005 (005); 31.3 µg/mL in the test on E. coli 005 (setting [2]); 23.0 µM in the test on E. coli 0010 (0010); 31.3 µg/mL in the test with E. coli 0010 (setting [3]); 45.9 µM with En. cloacae 003; 62.5 µg/mL with En. cloacae 003 (setting [4]). In addition, the MIC of peptidomimetics is 23.0 µM with E. coli 0015 (0015); 31.3 µg/mL in the test with E. coli 0015 (setting [5]); 45.9 µM with K. pneumoniae JIE2709 (JIE2709); 62.5 µg/mL with K. pneumoniae JIE2709 (setting [6]); 5.7 µM with S. aureus 04 (04); 7.8 µg/mL in the test with S. aureus 04 (setting [9]). In addition, the MIC of peptidomimetics with A. baumannii 008 (008) came to 23.0 µM; with A. baumannii 008 (setting [10]), 31.3 µg/mL; with P. aeruginosa 216 (216) it was 11.5 µM; in the test on P. aeruginosa 216 (setting [7]) it was 15.6 µg/mL; in the test with A. baumannii 007 (007) it was 23.0 µM; in the test on A. baumannii 007 (setting [8]) it was 31.3 µg/mL. The MIC of peptidomimetics was found to be 11.5 µmol/L in the test on P. aeruginosa 33 (33) and 15.6 µg/mL in the test on P. aeruginosa 33 (setting [11]).
As to KNKRKRRRRRRGGRRRR [Mel4], the “Geometric mean MICCA” value with C. auris strains was determined as 22.1 µg/mL. The MIC of peptidomimetics turned out to be 250 µg/mL in the test with E. coli 005 (setting [2]); 250 µg/mL in the test with E. coli 0010 (setting [3]); 250 µg/mL in the test with En. cloacae 003 (setting [4]); 62.5 µg/mL in the test on E. coli 0015 (setting [5]); 62.5 µg/mL in the test on K. pneumoniae JIE2709 (setting [6]); 62.5 µg/mL with S. aureus 04 (setting [9]). For the same compound, the MIC of peptidomimetics in the test with A. baumannii 008 (setting [10]) was 250 µg/mL; with P. aeruginosa 216 (setting [7]), 250 µg/mL; in the test with A. baumannii 007 (setting [8]), 250 µg/mL; with P. aeruginosa 33 (setting [11]), 62.5 µg/mL.
Take “TLISWIKNKRKQRPRVSRRRRRRGGRRRR [Melimine]”: in the test with C. auris strains, the “Geometric mean MICCA” value was determined as 22.1 µg/mL. The MIC of peptidomimetics in the test with E. coli 005 (setting [2]) was 250 µg/mL; with E. coli 005 (E. coli 005, value in brackets) it was 66.0 µM; with E. coli 0010 (setting [3]), 250 µg/mL; with E. coli 0010 (E. coli 0010, value in brackets) it was 66.0 µM; in the test with En. cloacae 003 (setting [4]), 125 µg/mL; in the test with En. cloacae 003 (En. cloacae 003, value in brackets), 33.0 µM. For the same compound, the MIC of peptidomimetics with E. coli 0015 (setting [5]) is 125 µg/mL; in the test on E. coli 0015 (E. coli 0015, value in brackets), 33.0 µM; in the test on K. pneumoniae JIE2709 (setting [6]), 500 µg/mL; in the test with S. aureus 04 (setting [9]) it was 31.3 µg/mL; in the test on S. aureus 04 (S. aureus 004, value in brackets), 8.2 µM; in the test on A. baumannii 008 (setting [10]) it was 250 µg/mL. Also, the MIC of peptidomimetics in the test on A. baumannii 008 (A. baumannii 008, value in brackets) is 66.0 µM; in the test on P. aeruginosa 216 (setting [7]), 500 µg/mL; in the test on A. baumannii 007 (setting [8]), 125 µg/mL; in the test with A. baumannii 007 (A. baumannii 007, value in brackets), 33.0 µM; in the test on P. aeruginosa 33 (setting [11]), 62.5 µg/mL; in the test with P. aeruginosa 33 (P. aeruginosa 33, value in brackets), 16.5 µmol/L.

The values above are taken from paper PMC11879280, “Antimicrobial activity of peptoids against Metallo-β-lactamase-producing Klebsiella pneumoniae, Acinetobacter baumannii, Pseudomonas aeruginosa, and other WHO priority pathogens, including Candida auris” (Journal of Applied Microbiology, 2025).
